Assays:
[1] = target: T1, human recombinant ETA receptors (Homo sapiens, UniProt P25101); assay: Inhibition of [125I]ET-1 binding to membranes from CHO cells carrying human ETA receptors
T1 construct: expressed in transfected cells; host or cells: CHO cells (microsomal membranes)
T1 sequence (P25101 21-427): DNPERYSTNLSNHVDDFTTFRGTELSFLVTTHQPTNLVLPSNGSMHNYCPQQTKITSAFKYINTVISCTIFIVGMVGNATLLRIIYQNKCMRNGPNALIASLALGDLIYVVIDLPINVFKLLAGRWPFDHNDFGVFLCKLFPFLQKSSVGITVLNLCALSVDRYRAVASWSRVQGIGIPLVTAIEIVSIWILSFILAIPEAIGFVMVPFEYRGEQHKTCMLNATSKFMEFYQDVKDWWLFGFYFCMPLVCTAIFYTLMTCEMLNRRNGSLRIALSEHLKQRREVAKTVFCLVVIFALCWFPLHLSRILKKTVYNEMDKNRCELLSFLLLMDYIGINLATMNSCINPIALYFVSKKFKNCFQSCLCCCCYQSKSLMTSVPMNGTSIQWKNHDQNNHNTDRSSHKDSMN
Experimental: (§1) 1) Inhibition of Endothelin Binding to Membranes from CHO Cells Carrying Human ET Receptors:
(§2) For competition binding studies, membranes of CHO cells expressing human recombinant ETA or ETB receptors were used.
(§3) The assay was performed in 200 uL 50 mM Tris/HCl buffer, pH 7.4, including 25 mM MnCl2, 1 mM EDTA and 0.5% (w/v) BSA in polypropylene microtiter plates. […] After 2 h, the membranes were filtered on filterplates containing GF/C filters (Unifilterplates from Canberra Packard S.A. Zürich, Switzerland). To each well, 50 uL of scintillation cocktail was added (MicroScint 20, Canberra Packard S.A. Zürich, Switzerland) and the filter plates counted in a microplate counter (TopCount, Canberra Packard S.A. Zürich, Switzerland).
(§4) All the test compounds were dissolved, diluted and added in DMSO.

[2] = target: T2, human recombinant ETB receptors (Homo sapiens, UniProt P24530); assay: Inhibition of [125I]ET-1 binding to membranes from CHO cells carrying human ETB receptors
T2 construct: expressed in transfected cells; host or cells: CHO cells (microsomal membranes)
T2 sequence (P24530 27-442): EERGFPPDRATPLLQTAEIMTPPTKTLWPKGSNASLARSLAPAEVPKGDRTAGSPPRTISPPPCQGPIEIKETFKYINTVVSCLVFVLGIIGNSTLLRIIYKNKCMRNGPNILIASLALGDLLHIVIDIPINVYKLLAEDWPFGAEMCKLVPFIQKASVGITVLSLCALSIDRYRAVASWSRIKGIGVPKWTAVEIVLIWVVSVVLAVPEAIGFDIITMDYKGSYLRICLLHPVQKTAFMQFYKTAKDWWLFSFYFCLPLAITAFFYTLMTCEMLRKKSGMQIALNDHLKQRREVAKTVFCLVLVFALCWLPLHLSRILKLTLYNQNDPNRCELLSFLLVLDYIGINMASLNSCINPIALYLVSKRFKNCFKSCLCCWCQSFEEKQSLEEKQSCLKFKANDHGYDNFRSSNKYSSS
Experimental: as §1, §2, §3, §4
Further: 2.5% DMSO.

| IC50 [1] [nM] | IC50 [2] [nM] | SMILES |
| --- | --- | --- |
| 22 | 155 | COc1ccccc1Oc1c(NS(C)(=O)=O)ncnc1OCCOc1ncc(SC)cn1 [Example 19] |
| 10 | > 1000 | CCCCS(=O)(=O)Nc1nc(C2CC2)nc(OCCOc2ncc(OC)cn2)c1-c1ccc(C)cc1 [Example 78] |
| 1.2 | 563 | CCS(=O)(=O)Nc1ncnc(OCCOc2ncc(SC)cn2)c1-c1ccc(Cl)cc1 [Example 68] |
| 0.46 | – | CCCS(=O)(=O)Nc1ncnc(OCCOc2ncc(Br)cn2)c1-c1ccc(Br)cc1 [Example 70] |
| 6.34 | > 1000 | CCCS(=O)(=O)Nc1ncnc(OCCOc2ncc(Br)cn2)c1-c1ccc(C)cc1 [Example 4, n-propanesulfonic acid {6-[2-(5-bromo-pyrimidin-2-yloxy)-ethoxy]-5-p-tolyl-pyrimidin-4-yl}-amide] |
| 1.3 | 454 | CSc1cnc(OCCOc2ncnc(NS(C)(=O)=O)c2-c2ccc(Br)cc2)nc1 [Example 55] |
| 6.5 | 159 | CCCS(=O)(=O)Nc1ncnc(OCCOc2ncc(SC)cn2)c1Oc1ccccc1OC [Example 34] |
| 2.3 | 111 | CCCCS(=O)(=O)Nc1ncnc(OCCOc2ncc(SC)cn2)c1Oc1cccc(OC)c1 [Example 30] |
| 11 | – | CCCS(=O)(=O)Nc1nc(-c2ncccn2)nc(OCCOc2ncc(Br)cn2)c1Oc1ccccc1OC [Example 8] |
| 81 | > 1000 | COc1ccccc1Oc1c(NS(C)(=O)=O)ncnc1OCCOc1ncc(S(C)(=O)=O)cn1 [Example 20] |
| 0.6 | 936 | CCCS(=O)(=O)Nc1ncnc(OCCOc2ncc(SC)cn2)c1-c1ccc(Br)cc1 [Example 72] |
| 1.5 | > 1000 | CCCCS(=O)(=O)Nc1nc(C2CC2)nc(OCCOc2ncc(S(C)(=O)=O)cn2)c1-c1ccc(C)cc1 [Example 80] |
| 2.9 | > 1000 | Cc1ccc(-c2c(NS(C)(=O)=O)ncnc2OCCOc2ncc(Br)cn2)cc1 [Example 47] |
| 19 | 881 | CCCCS(=O)(=O)Nc1nc(-c2ncccn2)nc(OCCOc2ncc(OC)cn2)c1Oc1ccccc1OC [Example 26] |
| 3.5 | > 1000 | CCS(=O)(=O)Nc1nc(C2CC2)nc(OCCOc2ncc(SC)cn2)c1-c1ccc(C)cc1 [Example 64] |
| 1.2 | 314 | CCS(=O)(=O)Nc1ncnc(OCCOc2ncc(S(C)(=O)=O)cn2)c1-c1ccc(Cl)cc1 [Example 69] |
| 11 | > 1000 | CCCS(=O)(=O)Nc1ncnc(OCCOc2ncc(S(C)(=O)=O)cn2)c1Oc1ccccc1OC [Example 35] |
| 0.49 | 640 | CCCCS(=O)(=O)Nc1ncnc(OCCOc2ncc(SC)cn2)c1-c1ccc(Br)cc1 [Example 83] |
| 1.1 | 271 | CCS(=O)(=O)Nc1ncnc(OCCOc2ncc(S(C)(=O)=O)cn2)c1-c1ccc(Br)cc1 [Example 61] |
| 1.1 | 824 | CS(=O)(=O)Nc1ncnc(OCCOc2ncc(Br)cn2)c1-c1ccc(Br)cc1 [Example 53] |
| 1.4 | > 1000 | CCS(=O)(=O)Nc1nc(C2CC2)nc(OCCOc2ncc(S(C)(=O)=O)cn2)c1-c1ccc(C)cc1 [Example 65] |
| 0.54 | – | CCCCS(=O)(=O)Nc1ncnc(OCCOc2ncc(Br)cn2)c1-c1ccc(Br)cc1 [Example 81] |
| 27 | – | COc1ccccc1Oc1c(NS(C)(=O)=O)nc(-c2ncccn2)nc1OCCOc1ncc(Br)cn1 [Example 14] |
| 6.5 | – | CCCCS(=O)(=O)Nc1nc(-c2ncccn2)nc(OCCOc2ncc(Br)cn2)c1Oc1ccccc1OC [Example 25] |
| 16.3 | – | CCS(=O)(=O)Nc1nc(-c2ncccn2)nc(OCCOc2ncc(Br)cn2)c1Oc1ccccc1OC [Example 7, ethanesulfonic acid [6-[2-(5-bromo-pyrimidin-2-yloxy)-ethoxy]-5-(2-methoxy-phenoxy)-[2,2′]bipyrimidinyl-4-yl]-amide] |

Reference: US7323465B2, “Alkansulfonamides as endothelin antagonists” (Actelion Pharmaceuticals Ltd., priority 2002, dated 2008)
